Source: PubChem BioAssay (NCI)
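Step 1: Grow cells in 96-well plates. Step 2: Expose to compound for 48 hours at 5 concentrations. Step 3: Interpolate endpoints linearly; if unreached, use highest concentration. At the GI50, growth is halved. At the TGI there is no net growth.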

Tests used:
Test in all cases: growth of human tumour cells (NCI), 48 h
[1] = tested on: SF-268 CNS
[2] = tested on: A498 renal
[3] = tested on: OVCAR-5 ovarian
[4] = tested on: RXF 393 renal
[5] = tested on: MOLT-4 leukemia
[6] = tested on: HOP-62 NSCLC
[7] = tested on: SN12C renal
[8] = tested on: MCF7 breast
[9] = tested on: NCI/ADR-RES ovarian
[10] = tested on: HS 578T breast

Compound: O=C([O-])c1ccccc1Nc1ccccn1.O=C([O-])c1ccccc1Nc1ccccn1.[Ni+2]
- GI50 [1]: 75.7 µM
- TGI [1]: > 100 µM
- GI50 [2]: > 100 µM
- TGI [2]: > 100 µM
- GI50 [3]: 75.6 µM
- TGI [3]: > 100 µM
- GI50 [4]: > 100 µM
- TGI [4]: > 100 µM
- GI50 [5]: 89.8 µM
- TGI [5]: > 100 µM
- GI50 [6]: > 100 µM
- TGI [6]: > 100 µM
- GI50 [7]: > 100 µM
- TGI [7]: > 100 µM

Compound: CC1=NCCc2c1[nH]c1cc(O)ccc21
- TGI [1]: > 100 µM
- TGI [2]: > 100 µM
- TGI [3]: > 100 µM
- TGI [4]: > 100 µM
- TGI [5]: > 100 µM
- TGI [6]: > 100 µM
- TGI [7]: > 100 µM

Compound: COc1ccccc1NC(=O)C1=C(C)NC(C)=C(C(=O)Nc2ccccc2OC)C1c1ccccc1F
- TGI [1]: > 100 µM
- TGI [2]: > 100 µM
- TGI [3]: > 100 µM
- TGI [5]: > 100 µM
- TGI [6]: > 100 µM
- TGI [7]: > 100 µM

Compound: CNC(=O)OCc1nc(SC2CCCCO2)n(C)c1COC(=O)NC (stereo unspecified)
- TGI [1]: > 100 µM
- TGI [2]: > 100 µM
- TGI [8]: > 100 µM
- TGI [3]: > 100 µM
- TGI [4]: > 100 µM
- TGI [9]: > 100 µM
- TGI [5]: > 100 µM
- TGI [6]: > 100 µM
- TGI [7]: > 100 µM

Compound: CC1(C)SC2C(NC(=O)C(N)c3ccccc3)C(=O)N2C1C(=O)O (stereo unspecified)
- TGI [1]: > 100 µM
- TGI [8]: > 100 µM
- TGI [3]: > 100 µM
- TGI [10]: > 100 µM
- TGI [9]: > 100 µM
- TGI [5]: > 100 µM
- TGI [6]: > 100 µM
- TGI [7]: > 100 µM

Compound: CCCCCCCCCc1cc(=O)c2ccc(OCc3ccccc3)cc2o1
- TGI [1]: > 100 µM
- TGI [3]: > 100 µM
- TGI [4]: > 100 µM
- TGI [6]: > 100 µM
- TGI [7]: > 100 µM

Compound: COc1nc(NC2OCC(OC(C)=O)C(OC(C)=O)C2OC(C)=O)c(N=CC=Nc2c(NC3OCC(OC(C)=O)C(OC(C)=O)C3OC(C)=O)nc(OC)n(C)c2=O)c(=O)n1C (stereo unspecified)
- TGI [1]: > 100 µM
- TGI [2]: > 100 µM
- TGI [3]: > 100 µM
- TGI [4]: > 100 µM
- TGI [6]: > 100 µM
- TGI [7]: > 100 µM

Compound: COC(=O)CCC(NC(=S)N/N=C(\C)c1nccs1)C(=O)OC (stereo unspecified)
- TGI [1]: > 100 µM
- TGI [2]: > 100 µM
- TGI [3]: > 100 µM
- TGI [4]: > 100 µM
- TGI [6]: > 100 µM
- TGI [7]: > 100 µM

Compound: Nc1cc2cccc[n+]2c2cc(Cl)ccc12
- GI50 [1]: 4.03 µM
- TGI [1]: 21.7 µM
- GI50 [8]: 17.9 µM
- TGI [8]: 63 µM
- GI50 [3]: 25.7 µM
- GI50 [10]: 16.6 µM
- TGI [10]: 51.4 µM
- GI50 [4]: 87.9 µM
- GI50 [5]: 4.22 µM
- GI50 [7]: 5.56 µM
- TGI [7]: 35.4 µM

Compound: CC1CCCCc2nc3c(c(=O)n21)CCCC3 (stereo unspecified)
- TGI [1]: > 100 µM
- TGI [3]: > 100 µM
- TGI [5]: > 100 µM
- TGI [6]: > 100 µM
- TGI [7]: > 100 µM

Compound: CC(C)C(=O)Nc1nc2nc[nH]c2c(=O)[nH]1
- TGI [1]: > 100 µM
- TGI [2]: > 100 µM
- TGI [3]: > 100 µM
- TGI [4]: > 100 µM
- TGI [5]: > 100 µM
- TGI [6]: > 100 µM
- TGI [7]: > 100 µM

Compound: NC(=S)N/N=C(/CC(=O)c1ccccc1)C(=O)Nc1ccc(Cl)c(Cl)c1
- TGI [1]: > 100 µM
- TGI [2]: > 100 µM
- TGI [3]: > 100 µM
- TGI [4]: > 100 µM
- TGI [5]: 93.7 µM
- TGI [6]: > 100 µM
- TGI [7]: > 100 µM

Compound: CCCCCCCCCCCCOC(=S)NCCCC
- TGI [1]: 58.1 µM
- TGI [2]: 43.1 µM
- TGI [3]: 51.4 µM
- TGI [4]: 56.8 µM
- TGI [5]: 36 µM
- TGI [6]: 73.4 µM
- TGI [7]: 45.2 µM

Compound: COCCN1C2=CCCCC2=Nc2c1nc(N)[nH]c2=O
- TGI [1]: > 100 µM
- TGI [2]: > 100 µM
- TGI [3]: > 100 µM
- TGI [4]: > 100 µM
- TGI [5]: > 100 µM
- TGI [6]: > 100 µM
- TGI [7]: > 100 µM

Compound: CC(C)(C)OC(=O)C#CC[C@H]1CCCC1/C=C/C(O)=C1/C(=O)NC(CCCNC(=O)OC(C)(C)C)C1=O (stereo partly specified)
- TGI [1]: 75.3 µM
- TGI [2]: > 100 µM
- TGI [3]: > 100 µM
- TGI [4]: 30 µM
- TGI [5]: 75.9 µM
- TGI [6]: > 100 µM
- TGI [7]: > 100 µM

Compound: C=C1C(=O)O[C@H]2[C@H]1[C@H](OC(=O)/C(C)=C\C)CC(=C)[C@@H]1[C@H](O)[C@H]3O[C@@]3(C)[C@@]12O
- TGI [1]: > 100 µM
- TGI [6]: > 100 µM
- TGI [7]: > 100 µM

Compound: COC(=O)CCC1CCc2c(OC)ccc(O)c2C1=O (stereo unspecified)
- TGI [1]: > 100 µM
- TGI [2]: > 100 µM
- TGI [4]: > 100 µM
- TGI [5]: > 100 µM
- TGI [6]: > 100 µM
- TGI [7]: > 100 µM

Compound: CCCc1[nH]nc(CCC(=O)N(Cc2ccccc2)Cc2ccccc2)c1CC
- TGI [1]: > 100 µM
- TGI [2]: > 100 µM
- TGI [3]: > 100 µM
- TGI [4]: > 100 µM
- TGI [5]: > 100 µM
- TGI [6]: > 100 µM
- TGI [7]: > 100 µM

Compound: c1cc(-c2cn3ccsc3n2)ccn1
- TGI [1]: > 100 µM
- TGI [2]: > 100 µM
- TGI [3]: > 100 µM
- TGI [5]: > 100 µM
- TGI [6]: > 100 µM
- TGI [7]: > 100 µM

Compound: Cc1ccc(C(=O)O/N=C2/CCC/C2=C\c2ccccc2)cc1
- TGI [1]: > 100 µM
- TGI [2]: > 100 µM
- TGI [3]: > 100 µM
- TGI [4]: > 100 µM
- TGI [5]: > 100 µM
- TGI [6]: > 100 µM
- TGI [7]: > 100 µM
